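Assay format: 96-well plates, 48-hour exposure. GI50 marks 50% less growth.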 The source made the active and inactive calls. Rule as the data show it: active = GI50 up to about 1.1 µM and inactive = higher.
Experiments:
Test in all cases: DTP human tumour cell line panel, 48 h
ACHN = tested on: ACHN
MDA-MB-231 = tested on: MDA-MB-231
SK-MEL-5 = tested on: SK-MEL-5
Hs-578T = tested on: Hs-578T
MDA-MB-435 = tested on: MDA-MB-435
CCRF-CEM = tested on: CCRF-CEM
HCT-15 = tested on: HCT-15
LOX IMVI = tested on: LOX IMVI
OVCAR-8 = tested on: OVCAR-8
UO-31 = tested on: UO-31
COLO 205 = tested on: COLO 205
HCC 2998 = tested on: HCC 2998
OVCAR-4 = tested on: OVCAR-4
UACC-62 = tested on: UACC-62
786-0 = tested on: 786-0
EKVX = tested on: EKVX
SNB-19 = tested on: SNB-19
IGROV-1 = tested on: IGROV-1
T47D = tested on: T47D

SMILES | GI50 (ACHN) | GI50 (MDA-MB-231) | GI50 (SK-MEL-5) | GI50 (Hs-578T) | GI50 (MDA-MB-435) | GI50 (CCRF-CEM) | GI50 (HCT-15) [µM] | GI50 (LOX IMVI) | GI50 (OVCAR-8) | GI50 (UO-31) | GI50 (COLO 205) | GI50 (HCC 2998) | GI50 (OVCAR-4) | GI50 (UACC-62) | GI50 (786-0) | GI50 (EKVX) | GI50 (SNB-19) | GI50 (IGROV-1) | GI50 (T47D)
CCc1nc2ccc(C(F)(F)F)cc2[nH]c1=O | > 100 µM (inactive) | 50.6 µM (inactive) | > 100 µM (inactive) | > 100 µM (inactive) | > 100 µM (inactive) | > 100 µM (inactive) | > 100 | > 100 µM (inactive) | > 100 µM (inactive) | 61.7 µM (inactive) | > 100 µM (inactive) | > 100 µM (inactive) | 52.2 µM (inactive) | > 100 µM (inactive) | > 100 µM (inactive) | 44.5 µM (inactive) | > 100 µM (inactive) |  | 
NC(=O)C12CC3CC(CC(Br)(C3)C1)C2 | > 100 µM (inactive) |  | > 100 µM (inactive) |  |  | > 100 µM (inactive) | > 100 | > 100 µM (inactive) | > 100 µM (inactive) | > 100 µM (inactive) |  | > 100 µM (inactive) | > 100 µM (inactive) | > 100 µM (inactive) | > 100 µM (inactive) | > 100 µM (inactive) | > 100 µM (inactive) | > 100 µM (inactive) | 
O=C(c1ccccc1)N1C(=S)N(c2ccccn2)C(=N/c2ccccc2)/C1=N\c1ccccc1 | 9.93 µM (inactive) | 23.3 µM (inactive) | 19.1 µM (inactive) |  | 19.6 µM (inactive) | 2.57 µM (inactive) | 3.79 | 12.4 µM (inactive) | 8.28 µM (inactive) | 9.68 µM (inactive) | 28.8 µM (inactive) | > 93.5 µM (inactive) | 10.5 µM (inactive) | 11.2 µM (inactive) | 16.7 µM (inactive) | 24 µM (inactive) | 25.5 µM (inactive) | 13 µM (inactive) | 15.1 µM (inactive)
C/C(=C/c1ccccc1)CN(C(=O)/C=C\Sc1ccccc1)C(C)(C)C | > 100 µM (inactive) | > 100 µM (inactive) | 60.8 µM (inactive) |  | > 100 µM (inactive) | 63.1 µM (inactive) | 37.2 | > 66.4 µM (inactive) | > 83.8 µM (inactive) | > 52 µM (inactive) | > 100 µM (inactive) | 45.4 µM (inactive) | > 87.5 µM (inactive) | > 100 µM (inactive) | > 100 µM (inactive) | > 70 µM (inactive) | > 100 µM (inactive) | > 100 µM (inactive) | > 31.2 µM (inactive)
CC(=O)N(C(C)=O)n1c(-c2ccccc2)n[nH]c1=O | > 100 µM (inactive) | > 100 µM (inactive) | > 100 µM (inactive) |  | > 100 µM (inactive) | > 100 µM (inactive) | > 100 | > 100 µM (inactive) | > 100 µM (inactive) | > 100 µM (inactive) | > 100 µM (inactive) | > 100 µM (inactive) | > 100 µM (inactive) | > 100 µM (inactive) | > 100 µM (inactive) | > 100 µM (inactive) | > 100 µM (inactive) | > 100 µM (inactive) | 
COCCNC1CCC(=O)c2[nH]c3ccccc3c21 (centres undefined) | > 100 µM (inactive) | > 100 µM (inactive) | > 100 µM (inactive) | 83.9 µM (inactive) | > 100 µM (inactive) | > 100 µM (inactive) | > 100 | 94.4 µM (inactive) | > 100 µM (inactive) | 65.8 µM (inactive) | > 100 µM (inactive) | > 100 µM (inactive) | > 100 µM (inactive) |  | > 100 µM (inactive) | 27.1 µM (inactive) | > 100 µM (inactive) | > 100 µM (inactive) | 
O=c1cc(-c2ccccc2)[nH]c2cc(F)c(F)cc12 | 0.676 µM (active) | 1.44 µM (inactive) | 0.197 µM (active) | 0.423 µM (active) | 0.1 µM (active) | 0.379 µM (active) | 0.472 | 0.494 µM (active) | 0.824 µM (active) | 0.805 µM (active) | 0.661 µM (active) | 5.11 µM (inactive) | > 51.4 µM (inactive) | 0.322 µM (active) | 0.238 µM (active) | 11.5 µM (inactive) | 0.718 µM (active) | 0.634 µM (active) | 
CNC(=O)N(CCC#N)CCN(CCN(C(=O)NC)c1ccccc1)C(=O)NC | > 100 µM (inactive) | > 100 µM (inactive) | > 100 µM (inactive) |  | > 100 µM (inactive) | > 100 µM (inactive) | > 100 | > 100 µM (inactive) | > 100 µM (inactive) | > 100 µM (inactive) | > 100 µM (inactive) | > 100 µM (inactive) | > 100 µM (inactive) | > 100 µM (inactive) | > 100 µM (inactive) | > 100 µM (inactive) | > 100 µM (inactive) | > 100 µM (inactive) | > 100 µM (inactive)
CCn1ncc2c1nc(-c1ccccc1)c[n+]2[O-] | > 100 µM (inactive) |  |  | 61.1 µM (inactive) | > 100 µM (inactive) | > 100 µM (inactive) | > 100 | 7.01 µM (inactive) | 75 µM (inactive) | 62.8 µM (inactive) | > 100 µM (inactive) |  |  | 6.15 µM (inactive) | > 100 µM (inactive) | > 100 µM (inactive) | > 100 µM (inactive) | > 100 µM (inactive) | > 100 µM (inactive)
Cc1c(Cc2ccccc2)n(C(C)OCCN(OC(=O)Oc2ccccc2)C(=O)Oc2ccccc2)c(=O)[nH]c1=O (centres undefined) | 26.3 µM (inactive) | 19.5 µM (inactive) | 14.3 µM (inactive) | 12.9 µM (inactive) | 23.4 µM (inactive) | 12.4 µM (inactive) | 14.6 |  | 16.9 µM (inactive) | 14.5 µM (inactive) | 18.3 µM (inactive) | 17.3 µM (inactive) | 19.7 µM (inactive) | 16.3 µM (inactive) | 18.3 µM (inactive) | 14.4 µM (inactive) | 25.1 µM (inactive) | 14.9 µM (inactive) | 
COC(=O)C1(CCCCl)CCCN1C(=O)OC(C)(C)C (centres undefined) | > 100 µM (inactive) | > 100 µM (inactive) | > 100 µM (inactive) |  | > 100 µM (inactive) | 37.5 µM (inactive) | > 100 | > 100 µM (inactive) |  | > 100 µM (inactive) | > 100 µM (inactive) | > 100 µM (inactive) | > 100 µM (inactive) | > 100 µM (inactive) | > 100 µM (inactive) | > 100 µM (inactive) | > 100 µM (inactive) | > 100 µM (inactive) | > 100 µM (inactive)
COc1ccc(/C=C2\CCCCCC2=O)cc1 | > 100 µM (inactive) | > 100 µM (inactive) | > 100 µM (inactive) |  | > 100 µM (inactive) | > 100 µM (inactive) | > 100 | > 100 µM (inactive) | > 100 µM (inactive) | > 100 µM (inactive) | > 100 µM (inactive) | > 100 µM (inactive) | > 100 µM (inactive) | > 100 µM (inactive) | > 100 µM (inactive) | > 100 µM (inactive) | > 100 µM (inactive) | > 100 µM (inactive) | > 100 µM (inactive)
